Paper PMC4761420 (2015)

Test system: 5′-TAMRA-AM1A (RNA, riboswitch) GAGGGUGGAACCGCGCUUCGGCGUCCCUC
Experiment: fluorescence titration
Settings: 50 mM NaCl; 50 mM MOPS pH 6.5, 0.01 mM EDTA; 100 nM RNA; apparent

Kd: 54 ± 12 µM
SMILES: NCCCCNCCCN
